Assay results published in a melting point compilation (Tetko et al.; mined from patent text by program, amines drawn as free bases though some values may be those of a salt).

Compound	melting point
COc1ccc(-c2nc3cccc(OC)c3c(=O)[nH]2)nc1-c1ccc(S(C)=O)cc1 (stereo not drawn)	308 to 310 °C
CN1C(=O)N(C)C(=O)C(Cc2ccccc2)(Cc2ccccc2)C1=O	128 to 129 °C
COc1ccc(NC(N)=S)c(N2CCOCC2)c1	175 °C
CCCCCCCCCCCCCCNC(=O)c1cnccn1	80 to 81 °C
CCCN(Cc1ccc(-c2ccccc2-c2nnn[nH]2)cc1)c1nc(C)cnc1C(=O)OCC	172 to 174 °C
ClCc1nc2cc(Br)ccc2o1	63 to 65 °C
COc1ccccc1N1CCN(CCN(CCCN2CC=C(c3c[nH]c4cc(F)ccc34)CC2)C(C)=O)CC1	75 to 77 °C
CCCCCN(CCC12CC3CC(CC(C3)C1)C2)C(=O)NCC(C)Cc1ccncc1 (stereo not drawn)	103 to 104 °C
COc1cc(OC)c2c(=O)[nH]c(-c3cccc(N4CCN(CCS(C)(=O)=O)CC4)n3)nc2c1	243 to 244 °C
Cc1ccc2c(c1)C(=O)N(C)CC(=O)N2	243 to 244 °C
CN(C)C(=O)c1cc(-c2ccccc2)c(=O)n2c1-c1ccccc1C2	207 to 209 °C
Cn1cc(C(=O)O)c(=O)c2cc(Cl)c(N3CCNCC3)cc21	288 °C
Cc1cnc(N2CCC(c3ccc(S(N)(=O)=O)cc3)CC2)n1C	256 to 257 °C
N#CCc1ccc(C2=CCCCC2)cc1	71 to 73 °C
CNS(=O)(=O)c1cc2c(c(C(=O)O)c1)OCCO2	208 to 209 °C
COc1cc(C#C[Si](C)(C)C)c(OC)cc1C#C[Si](C)(C)C	164 to 165 °C
Oc1c(C(=S)NCc2ccc(Cl)cc2)cnc2ccc(CN3CCOCC3)cc12	215 to 216 °C
CCOC(=O)CCCn1nc(-c2c(-c3ccccc3)nn3ccccc23)ccc1=O	71 to 75 °C
COC1=C2C(=C(C(C)C)CC1(C)OC)C(=O)N(CSc1nnnn1-c1ccccc1)S2(=O)=O (stereo not drawn)	169 to 171 °C
COc1ccc(N(C=C(C#N)C#N)N=C(C#N)C#N)cc1	143 to 145 °C

Compound	melting point
CN(C)Cc1ccc2c(c1)c(C1CCN(CCN3CCNC3=O)CC1)cn2-c1ccc(F)cc1	166 to 174 °C
CON(C)Cc1nc2c(N)nc3cc(OCc4ccccc4)ccc3c2n1CC1CCOCC1	159 to 161 °C
COc1ccc(C2(C#Cc3cccc(NS(C)(=O)=O)c3)CCCC(=O)C2)cc1OC1CCCC1 (stereo not drawn)	59 to 62 °C
O=C(O)CCc1cc2nc(C(F)(F)F)ccc2n1S(=O)(=O)c1cccc2ccccc12	116 to 117 °C
O=c1c(CCCCc2cccnc2)cc2cccnc2n1-c1cccc([N+](=O)[O-])c1	184 to 185 °C
COCC(NC(C)=O)C(=O)NCc1ccccc1 (stereo not drawn)	142 to 143 °C
NS(=O)(=O)c1cccc(Cl)c1C=C1CCOC1=O	172 to 174 °C
CC(C(O)C(C)(C)Cc1ccc(OC(F)(F)F)cc1)n1ncnc1S (stereo not drawn)	125 to 126 °C
Oc1ccc2c(c1)c1c(n2CCCCCN2CCCCC2)-c2ccccc2SCC1	182 °C
O=C(Nc1ccc2cc(CN3CCCC3)ccc2c1)c1ccc(-c2ccc(Cl)cc2)cc1	214 to 217 °C
N#Cc1ccc2nccn2c1	166 to 167 °C
CCNc1nc(C)nc(O)c1C(C)C	180 °C
CNC(=O)NCCN1CCC(Nc2nc3ccccc3n2Cc2ccc(F)cc2)C1 (stereo not drawn)	161 °C
O=C1c2ccccc2C(=O)c2c1ccc1[nH]c(=O)c(=O)[nH]c21	245 to 246 °C
Cc1cc(C(F)(F)F)nc(OCC2CO2)c1C(=O)C1=C(O)C2CCC(C2)C1=O (stereo not drawn)	54 to 56 °C
CC(=O)C(CCC(=O)O)(CCC(=O)O)C(C)=O	176 °C
CCCCCCCCCCCCCCCc1cc2cc(C(=O)OCC)ccc2[nH]1	89 to 91 °C
CCn1ncc2c1ncc1c(OC(C)C)nc3cc(C)nn3c12	129 to 130 °C
Cn1ccc(NC(=S)S)n1	79 to 82 °C

Continued, values first:

melting point	Compound
244 °C	O=C(NC(=O)c1c(F)cccc1Cl)Nc1cnc(Oc2ccc(Cl)c3c2CCCC3)c(Cl)c1
177 °C	COC(=O)c1cnc(S)n1C1CC(C)c2ccccc21 (stereo not drawn)
64 to 66 °C	Nc1cccc2cc(-c3ccccc3)cnc12
127 to 128 °C	COC(=O)Cc1nc(-c2ccc(Cl)cc2)oc1-c1ccsc1
130 to 132 °C	CCOC(=O)C1=Cc2cc(OCC(=O)c3ccc(Br)cc3)ccc2OC1C(F)(F)F (stereo not drawn)
108 to 110 °C	CS(=O)(=O)Nc1cnc(NC(=O)[C@H](CC2CCCC2)c2ccc(S(C)(=O)=O)c(Cl)c2)cn1
160 °C	COc1cccc(OC)c1-c1cc(C(=O)NCC(=O)O)nn1-c1ccc(C(=O)N(C)CCCN(C)C)cc1C(C)C
229 to 231 °C	O=C(O)Cn1c(-c2cc(Br)co2)nc2cccnc21
159 to 160 °C	CNC(=O)c1ccccc1-c1cc(-c2ccccc2)on1
210 to 215 °C	COc1cc(C)nc(NC(=O)NS(=O)(=O)c2ccccc2N)n1
256 to 257 °C	COc1cc2ncnc(Nc3cccc(O)c3)c2cc1OC
151 to 153 °C	CCn1nc(-c2ccccc2)c(C(C)=O)c(N)c1=O
164 to 165 °C	CCOC(=O)C1=C(C)NC(C)=C(C(=O)OCC)C1c1ccc(Br)cc1
140 °C	COc1cccc(-c2ccc3c(c2)CC[C@H]2N(C)C(=O)CC[C@]32C)c1
186 to 189 °C	COC(=O)c1ccc2c(Br)n[nH]c2c1
149 to 152 °C	CC(=O)Nc1ccc(OC(=O)c2ccc(COC(=O)OC(C)O[N+](=O)[O-])cc2)cc1 (stereo not drawn)
100 to 102 °C	CCCC(=O)c1cnc2c(OCCCN(C)Cc3ccccc3)cccc2c1Nc1ccccc1C

melting point	Compound
133 to 134 °C	CC=CCn1c(C)c(C)c2cnnc(OCc3ccc(Cl)cc3Cl)c21
135 to 136 °C	COC(=O)Cc1ccc(Sc2ccccc2C(=O)O)c([N+](=O)[O-])c1
305 °C	Cc1ccc2[nH]c3c(C(=O)O)cccc3c2c1Cl
83.5 to 84 °C	O=CC1=C(Cl)c2cccc(Cl)c2CC1
143 to 145 °C	CCOC(=O)/C=C/c1c(-c2ccccc2)c2cc(C)c(C)cc2c(=O)n1C
192 to 194 °C	Cc1[nH]c2c(ccc3sc4ccccc4c32)c1C=O
256 °C	CCn1c(=O)c(-n2c(C(N)=O)nnc2-c2ccc(C#N)cc2)c(C)n(-c2cccc(C(F)(F)F)c2)c1=O
112 to 114 °C	COc1ccc(C(=O)c2ccco2)cc1OC
65 to 66.5 °C	CC(C)(C)[Si](C)(C)N1C(=O)CC1CC(=O)CC(=O)OCc1ccc([N+](=O)[O-])cc1 (stereo not drawn)
127 to 128 °C	CC(C)(/C=C\Cl)C(=O)Nc1ccc(Cl)cc1
130 to 131 °C	CC(=O)Nc1nc2ccccc2c2c(CC(C)C)n(C)nc12
247 °C	CC(C)c1ccc(N(Cc2cn[nH]c2)C(=O)C2CCCc3c(O)cccc32)cc1 (stereo not drawn)
34 °C	Fc1ccc(-c2cccc(F)n2)cc1
191 to 193 °C	CC(CC(=O)NCc1ccccc1)n1c(C(F)(F)F)nc2cc(F)c(-n3c(=O)cc(C(F)(F)F)n(C)c3=O)cc21 (stereo not drawn)
137 to 138 °C	CCCCc1cc2c(=O)n3cc(C(=O)OC)ccc3nc2s1
150 °C	COc1cc(Nc2nccc(-c3ccc[nH]3)n2)cc(OC)c1OC
135 to 136 °C	CSc1cnc(NC(=O)c2cccc(OC(C)=O)c2)s1
